From US11850266B2, “Cardiomyocytes and compositions and methods for producing the same” (President and Fellows of Harvard College, priority 2019, dated 2023)
“Also recorded” adds a separate entry of the source.

Assays:
Format in all cases: cell-based, human
[1] = tested on: mTORC1 (S6K) and mTORC2 (Akt); test: Western analysis of phosphorylation downstream of mTORC1 and mTORC2 in iPSC-derived cardiomyocytes
Experimental: Beating cardiomyocytes were treated with Torin1 (200 nM, unless otherwise noted) or vehicle (0.02% dimethylsulfoxide (DMSO)) beginning at ˜2 days after onset of beating for 7 days (media changed with fresh Torin1 or DMSO every 2-3 days), unless otherwise noted. After Torin1 treatment, media was switched back to RPMI/B27/insulin and maintained with media change every 2-3 days until endpoint assay.
Cells were lysed with lysis buffer (1% Triton X, 0.35% Na-deoxycholate, 1 mM EDTA, 1% protease inhibitor cocktail (Sigma), 1% phosphatase inhibitor cocktail 2 (Sigma), 1% phosphatase inhibitor cocktail 3 (Sigma), 1 mM phenylmethylsulfonyl fluoride (PMSF)) and total protein was measured with the Pierce BCA Protein Assay Kit. Samples with equal total protein quantities (prepared in Laemmli Sample Buffer (Bio-Rad)) were loaded into a Mini-Protean TGX Precast Gel (Bio-Rad) and electrophoresed for 1 hour at 100 V before transfer to a PVDF membrane using the Trans-Blot Turbo Transfer System (Bio-Rad). The Precision Plus Protein Dual Color Standards molecular weight ladder was used to estimate molecular weight of detected bands (Bio-Rad). Membranes were blocked with 5% milk or bovine serum albumin then incubated with the primary antibody (Table 2) overnight at 4 degrees C. followed by incubation with the horseradish peroxidase-conjugated secondary antibody (Table 2) for 1 hour at room temperature. The Amersham ECL Western Blotting Detection kit was used to detect the protein signal by chemiluminescence, and band densities were quantified using ImageJ software (NIH).

[2] = tested on: iPSC-derived cardiomyocytes; test: Muscular thin film (MTF) contractile force; conditions: Torin1 200 nM 7 days, MTFs, FIG. 2F
Experimental: Gelatin muscular thin films (MTFs) were prepared as previously described (32). Square 22×22 mm glass coverslips were covered with low adhesive tape (Patco 5560 Removable Protective Film Tape), and an Epilog Mini 24 laser engraving instrument was used to cut the tape such that two inner rectangles (3×10 mm for cantilever region and 7×10 mm for base region) were surrounded by an outer border. The larger inner rectangle was peeled away and this region was activated with 0.1 M NaOH for 5 minutes, then 0.5% (3-aminopropyl)triethoxysilane (APTES) in 95% ethanol for 5 minutes, then 0.5% glutaraldehyde solution for 30 minutes. The glass coverslips were then rinsed and dried. Next, the tape covering the smaller inner rectangle region was peeled away. A 20% w/v stock gelatin (175 g bloom, Type A, Sigma) in distilled water solution was dissolved at 65° C. for 30 minutes and an 8% w/v stock microbial transglutaminase (MTG) (Ajinomoto) in distilled water solution was dissolved at 37° C. for 30 minutes. […] The radius of curvature for each MTF was quantified using ImageJ. Thickness of the MTF was determined using a Zeiss LSM confocal microscope. […] The maximum and average systolic, diastolic, and twitch (systolic—diastolic stress) stresses were calculated for each MTF.

[3] = tested on: GCaMP-derived cardiomyocytes; test: Cardiomyocyte purity (% TNNT2+) in 3D suspension culture; conditions: Torin1 24 hours from day 9, assay day 10; ~70% TNNT2+ with the protocol
Experimental: Cardiomyocyte differentiation of iPSCs in suspension culture. The suspension differentiation protocol outlined by Kempf et al (79) will be used with some modifications. 30 ml and 125 ml disposable spinner flasks are set on a spinner plate capable of rotation speeds between 40-70 rpm placed in a 37° C., 5% CO2 incubator. Cells are seeded at 750,000 cells/ml and allowed to grow for 4 days in maintenance media until spheroids are approximately 300 μm in diameter, then differentiation is initiated with 7.5 μM CHIR99021. On day 2 of differentiation, CHIR is removed from the media and the Wnt pathway inhibitor IWP4 (5 μM) is added to the media, on day 4 of differentiation, IWP4 is removed from the media, and from day 7 onward, insulin is included in the media. […] Differentiation conditions will be optimized with all five cell lines (BJRiPS-A, DiPS 1016 SevA, GCaMP, Gibco, UCSD142i-86-1). Cardiomyocyte purity will be quantified with flow cytometry detecting TNNT2+ cells.
An example of a differentiation protocol for generating cardiomyocytes from iPSCs in suspension culture is detailed as follows. 30 ml and 125 ml disposable spinner flasks were used and were set on a spinner plate capable of rotation speeds between 40-70 rpm, where the spinner plate is placed in a 37° C., 5% CO2 incubator. […] Cardiomyocyte purity will be quantified with flow cytometry detecting TNNT2+ cells.

SMILES: CCC(=O)N1CCN(c2ccc(-n3c(=O)ccc4cnc5ccc(-c6cnc7ccccc7c6)cc5c43)cc2C(F)(F)F)CC1 [Torin1]
- phosphorylation of AMP kinase (AMPK) ([1]; Torin1 200 nM, 0-48 h, BJRiPS-CMs, FIG. 17B): increased phosphorylation of AMP kinase (AMPK)
- phosphorylation of S6K and Akt ([1]; Torin1 200 nM, single treatment, 0-48 h, BJRiPS-CMs): acutely decreased phosphorylation of both S6K and Akt
- phosphorylation of ribosomal protein S6 ([1]; Torin1 10, 50, 200 nM at days 25-29 after lactate enrichment, FIG. 28): decreased phosphorylation of S6
- relative maximum systolic force versus control [2]: ~2 fold
- % TNNT2+ cardiomyocyte purity in 3D suspension culture [3]: trend toward higher purity; also recorded: trend toward higher % TNNT2+ cells
